The target of data set [1] is T1, MtBPL (Mycobacterium tuberculosis, UniProt I6YFP0). The settings on record: for ΔG: from K of displacement ITC, 298 K.
Data set [2] concerns the target T1, MtBPL. Particulars: for -TΔS: calculated from ΔG (displacement) and ΔH (direct titration); for ΔH: direct titration ITC, 25 °C.
For data set [3] the following is noted: cyclonucleoside formation or decomposition at room temperature.
For data set [4], the target named is T1, MtBPL. Description: biochemical.
Data set [5] has as its target T1, MtBPL. Briefly: biochemical. The settings on record: read-out: ΔTm.
The next data set deals with M. tuberculosis H37Rv. Description: microbe, parasite or virus in culture. The settings on record: Mycobacterium tuberculosis.
Data set [6] deals with MDR-TB and XDR-TB strains. The settings on record: ten MDR-TB and XDR-TB strains; cited from earlier work.

“And” between values parts separate entries of the source, which are not always exact repeats. Equal entries are not always repeated. Structures can show the parent of a compound that is named as a salt. Some results are limits rather than exact numbers.

T1 sequence (I6YFP0 whole entry, looked up): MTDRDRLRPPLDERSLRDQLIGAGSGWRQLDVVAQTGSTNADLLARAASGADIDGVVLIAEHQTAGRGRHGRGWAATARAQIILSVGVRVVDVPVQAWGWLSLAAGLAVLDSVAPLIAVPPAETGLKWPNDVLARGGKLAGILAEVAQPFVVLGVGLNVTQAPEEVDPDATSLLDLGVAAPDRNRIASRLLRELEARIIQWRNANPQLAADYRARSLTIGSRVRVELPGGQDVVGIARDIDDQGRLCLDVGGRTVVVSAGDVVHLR

Usually Kd stands for the equilibrium constant for the complex coming apart. The ΔTm is the change in melting temperature against a reference sample. `[N-]=[N+]=N[C@H]1[C@H](O)[C@@H](COS(=O)(=O)NC(=O)CCCC[C@@H]2SC[C@@H]3NC(=O)N[C@@H]32)O[C@H]1n1cnc2c(N)ncnc21` [Compound 57, 9-{2′-Azido-5′-O-[N-(D-biotinoyl)sulfamoyl]-2′-deoxy-β-D-arabinofuranosyl}adenine triethylammonium salt]: at MtBPL [1], the “fold more potent than 14 (KD)” value worked out at 32 fold and the ΔG was -14.4 ± 0.2 kcal/mol. Moreover, the “-TΔS” value at MtBPL [2] is given as 14.9 ± 0.1 kcal/mol. In addition, the chemical stability entry in data set [3] is listed as “resisted any cyclonucleoside formation”. At MtBPL [4], this compound showed a Kd of 0.027 nM. The ΔTm at 43 µM at MtBPL [5] stood at 17 ± 1 °C. The MIC90 with M. tuberculosis H37Rv is over 100 µM.

In the case of `CCN(CC)CC.Nc1ncnc2c1ncn2[C@H]1C=C[C@@H](CNS(=O)(=O)NC(=O)CCCC[C@@H]2SC[C@@H]3NC(=O)N[C@@H]32)C1` [Compound 34], on MtBPL [1], the ΔG is -11.8 ± 0.2 kcal/mol. At MtBPL [2], the “-TΔS” value was 10.3 ± 0.2 kcal/mol and the ΔH was -22.1 ± 0.2 kcal/mol.

Usually MIC stands for the lowest concentration that inhibits growth of the organism. In the case of `Nc1ncnc2c1ncn2[C@@H]1O[C@H](CNS(=O)(=O)NC(=O)CCCC[C@@H]2SC[C@@H]3NC(=O)N[C@@H]32)[C@@H](O)[C@H]1O` [Compound 14, 5′-[N-(D-biotinoyl)sulfamoyl]amino-5′-deoxyadenosine triethylammonium salt], at MtBPL [2], the “-TΔS” value was 6.6 ± 0.1 kcal/mol and the ΔH was -18.9 ± 0.1 kcal/mol. The MIC in data set [6] is 0.16 to 0.625 µM.

On MtBPL [1], `CCN(CC)CC.[N-]=[N+]=N[C@@H]1[C@H](O)[C@@H](CNS(=O)(=O)NC(=O)CCCC[C@@H]2SC[C@@H]3NC(=O)N[C@@H]32)O[C@H]1n1cnc2c(N)ncnc21` [Compound 46] came in with a ΔG of -12.3 ± 0.6 kcal/mol. For the same compound, on MtBPL [2], the “-TΔS” value is listed as 10.9 ± 0.3 kcal/mol and the ΔH is -23.2 ± 0.2 kcal/mol.

At MtBPL [1], `CCN(CC)CC.Nc1ncnc2c1ncn2[C@@H]1O[C@H](CNS(=O)(=O)NC(=O)CCCC[C@@H]2SC[C@@H]3NC(=O)N[C@@H]32)[C@@H](O)[C@H]1N` [Compound 47] had a ΔG of -12.6 ± 1.0 kcal/mol. In addition, on MtBPL [2], the “-TΔS” value was 6.5 ± 0.2 kcal/mol and the ΔH is -19.1 ± 0.1 kcal/mol.

As to `CCN(CC)CC.Nc1ncnc2c1ncn2[C@@H]1O[C@H](CNS(=O)(=O)NC(=O)CCCC[C@@H]2SC[C@@H]3NC(=O)N[C@@H]32)C[C@H]1O` [Compound 87, 5′-[N-(D-Biotinoyl)sulfamoyl]amino-3′,5′-dideoxyadenosine triethylammonium salt], at MtBPL [1], the ΔG is -12.6 ± 0.1 kcal/mol. Further, on MtBPL [2], the “-TΔS” value is listed as 8.8 ± 0.6 kcal/mol and the ΔH is -21.4 ± 0.5 kcal/mol.

The compound `CCN(CC)CC.Nc1ncnc2c1ncn2[C@@H]1O[C@H](CNS(=O)(=O)NC(=O)CCCC[C@@H]2SC[C@@H]3NC(=O)N[C@@H]32)[C@@H](O)[C@H]1F` [Compound 63, 5′-[N-(D-Biotinoyl)sulfamoyl]amino-2′,5′-dideoxy-2′-fluoroadenosine triethylammonium salt] gave a ΔG on MtBPL [1] of -12.6 ± 0.3 kcal/mol. On MtBPL [2], the “-TΔS” value is reported as 11.8 ± 0.5 kcal/mol; the ΔH is -24.3 kcal/mol and -24.3 ± 0.5 kcal/mol.

On to `CCN(CC)CC.Nc1ncnc2c1ncn2[C@H]1CC[C@@H](CNS(=O)(=O)NC(=O)CCCC[C@@H]2SC[C@@H]3NC(=O)N[C@@H]32)C1` [Compound 36], for which, on MtBPL [1], the ΔG is -12.6 ± 0.2 kcal/mol. Further, on MtBPL [2], the “-TΔS” value was 10.7 ± 0.4 kcal/mol and the ΔH was -23.5 ± 0.4 kcal/mol.

As for `CCN(CC)CC.C[C@@]1(O)[C@H](O)[C@@H](COS(=O)(=O)NC(=O)CCCC[C@@H]2SC[C@@H]3NC(=O)N[C@@H]32)O[C@H]1n1cnc2c(N)ncnc21` [Compound 73, 5′-O-[N-(D-Biotinoyl)sulfamoyl]-β-2'-methyladenosine triethylammonium salt], the ΔG at MtBPL [1] is -12.4 ± 0.4 kcal/mol. Moreover, on MtBPL [2], the “-TΔS” value is on record as 8.1 ± 0.5 kcal/mol and the ΔH was -20.3 ± 0.4 kcal/mol. For the same compound, in data set [3], the chemical stability result is listed as “resisted any cyclonucleoside formation”.

For `CCN(CC)CC.Nc1ncnc2c1ncn2[C@@H]1C[C@H](CNS(=O)(=O)NC(=O)CCCC[C@@H]2SC[C@@H]3NC(=O)N[C@@H]32)[C@@H](O)[C@H]1O` [Compound 28], the ΔG on MtBPL [1] is -12.4 kcal/mol and -12.4 ± 0.0 kcal/mol. On MtBPL [2], the “-TΔS” value was 7.8 ± 0.2 kcal/mol and the ΔH was -20.2 ± 0.2 kcal/mol.

The compound `CCN(CC)CC.Nc1ncnc2c1ncn2[C@H]1CNC[C@@H](COS(=O)(=O)NC(=O)CCCC[C@@H]2SC[C@@H]3NC(=O)N[C@@H]32)O1` [Compound 82, (2′R,6′S)-9-[6′-({[N-(D-Biotinoyl)sulfamoyl]oxy}methyl)morpholin-2′-yl]adenine triethylammonium salt] came in with a ΔG at MtBPL [1] of -12.9 ± 0.9 kcal/mol. For the same compound, at MtBPL [2], the “-TΔS” value was 5.9 ± 0.1 kcal/mol and the ΔH was -18.8 ± 0.0 kcal/mol.

At MtBPL [1], `CCN(CC)CC.Nc1ncnc2c1ncn2[C@@H]1O[C@H](COS(=O)(=O)NC(=O)CCCC[C@@H]2SC[C@@H]3NC(=O)N[C@@H]32)[C@@H](O)[C@@H]1F` [Compound 69, 9-{5′-O-[N-(D-Biotinoyl)sulfamoyl]-2′-deoxy-2′-fluoro-β-D-arabinofuranosyl}adenine triethylammonium salt] returned a ΔG of -13.4 ± 0.0 kcal/mol. Besides, on MtBPL [2], the “-TΔS” value was 14.7 ± 0.5 kcal/mol; the ΔH is -28.4 kcal/mol and -28.4 ± 0.6 kcal/mol. Also, the chemical stability result in data set [3] is recorded as “resisted any cyclonucleoside formation”.

Values taken from publication PMC4667793 (Journal of medicinal chemistry, 2015).
